Values of other authors, collected in patent US20050119124A1, “Phosphorus and potassium fertilizer for all forms of perennial trees, vines and annual crops” (priority 1999, published 2005).

Details: 18C

SMILES: OP(O)O [Phosphorous acid, phosphorous acid]
- pK, first acid group: 2.00
- pK, second acid group: 6.59
